Columns and labels:
[1] = biological target: CRFR2 (Mus musculus, UniProt Q60748); conditions: Ruhmann et al., P.N.A.S. 95, 15264-15269 (1998); cited from earlier work
[2] = In vivo lowering of blood pressure on peripheral administration; conditions: administered peripherally
Procedure: (§1) In vivo testing is carried out using the general procedure set forth in C.

[3] = biological target: T1, human CRFR2 (Homo sapiens, UniProt Q13324); test: Competitive binding assay, CHO cells stably expressing human CRFR2, displacement of [125I-Tyr0]Ucn
T1 construct: expressed in transfected cells
T1 sequence (Q13324 1-411): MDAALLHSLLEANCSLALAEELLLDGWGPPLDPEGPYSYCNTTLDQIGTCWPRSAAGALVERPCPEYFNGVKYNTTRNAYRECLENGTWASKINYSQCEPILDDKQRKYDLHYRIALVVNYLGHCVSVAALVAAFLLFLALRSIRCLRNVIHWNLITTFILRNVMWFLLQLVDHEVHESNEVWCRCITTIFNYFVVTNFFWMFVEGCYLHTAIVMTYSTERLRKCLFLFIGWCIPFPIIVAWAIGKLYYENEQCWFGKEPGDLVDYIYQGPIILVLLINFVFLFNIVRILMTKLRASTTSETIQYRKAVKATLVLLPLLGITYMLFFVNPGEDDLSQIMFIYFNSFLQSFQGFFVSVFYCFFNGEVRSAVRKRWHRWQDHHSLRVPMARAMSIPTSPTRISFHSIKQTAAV
Procedure: The affinities of test peptides for CRFR1 and CRFR2 stably expressed in CHO cells were determined by competitive displacement of ^125I-(Nle^21, Tyr^32) ovine CRF (for CRFR1) or of [^125I-Tyr^o-]Ucn (for CRFR2) as described.

[4] = system: cultured rat pituitary cells; test: In vitro stimulation of ACTH and β-endorphin secretion by cultured rat pituitary cells; assay type: cell-based
Procedure: as §1

[5] = biological target: T2, human CRFR1 (Homo sapiens, UniProt P34998); test: Competitive binding assay, CHO cells stably expressing human CRFR1, displacement of 125I-(Nle21,Tyr32) ovine CRF
T2 construct: expressed in transfected cells
T2 sequence (P34998 24-415): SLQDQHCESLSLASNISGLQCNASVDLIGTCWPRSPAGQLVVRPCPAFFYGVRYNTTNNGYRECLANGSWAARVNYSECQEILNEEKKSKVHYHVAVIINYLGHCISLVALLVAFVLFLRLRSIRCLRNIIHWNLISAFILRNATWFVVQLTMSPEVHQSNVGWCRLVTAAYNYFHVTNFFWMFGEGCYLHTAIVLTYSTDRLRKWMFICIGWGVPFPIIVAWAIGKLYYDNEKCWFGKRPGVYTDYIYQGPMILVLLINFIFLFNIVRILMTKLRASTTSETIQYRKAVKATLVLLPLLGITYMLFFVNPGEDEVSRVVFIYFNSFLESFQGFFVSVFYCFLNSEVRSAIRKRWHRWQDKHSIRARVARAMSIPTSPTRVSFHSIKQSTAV
Procedure: Binding affinity is a term used to refer to the strength of interaction between ligand and receptor. […] Ki (inhibitory binding affinity constant) is determined using a “standard” or “tracer” radioactive ligand and thus measures the displacement of the tracer from the receptor or binding protein; it is most properly expressed with reference to such tracer. However, so long as these assays are carefully performed under specific conditions with relatively low concentrations of receptor or the like, the calculated Ki will be substantially the same as its dissociation constant KD. […] It is particularly efficient to test for Ki because only a single tracer need be labelled, e.g. radioiodinated.
Binding assays with cells expressing human CRFR1 are carried out as described in the Chen et al. P.N.A.S., supra. The affinities of test peptides for CRFR1 and CRFR2 stably expressed in CHO cells were determined by competitive displacement of ^125I-(Nle^21, Tyr^32) ovine CRF (for CRFR1) or of [^125I-Tyr^o-]Ucn (for CRFR2) as described.

CRFR2, sequence (Q60748 27-431 isoform Q60748-2 limits assumed): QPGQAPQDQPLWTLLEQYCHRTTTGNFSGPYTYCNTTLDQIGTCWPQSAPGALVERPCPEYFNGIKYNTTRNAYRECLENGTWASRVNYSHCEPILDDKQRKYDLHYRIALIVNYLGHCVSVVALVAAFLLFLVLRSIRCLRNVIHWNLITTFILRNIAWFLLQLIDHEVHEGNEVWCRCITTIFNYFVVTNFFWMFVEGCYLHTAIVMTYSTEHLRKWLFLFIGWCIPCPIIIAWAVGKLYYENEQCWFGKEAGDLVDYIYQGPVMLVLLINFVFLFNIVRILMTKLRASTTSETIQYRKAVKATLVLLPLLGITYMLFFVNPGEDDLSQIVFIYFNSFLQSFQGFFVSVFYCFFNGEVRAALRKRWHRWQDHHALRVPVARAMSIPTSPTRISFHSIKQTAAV

Substance | antagonism for CRFR2 compared with the previously best reported compound [1] | lowering of blood pressure [2] | binding to CRFR2 (in words) [3] | stimulation of the secretion of ACTH and β-END-LI [4] | binding to CRFR1 (in words) [5]
[D-Phe^11, His^12]-sauvagine(11-40) | close to equal antagonism | – | – | – | –
(cyclo 31-34)[Ac-Pro^4, D-Phe^12, Nle^21,38, CML^27,36, Glu^31, Lys^34]-r/hCRF(4-41) [Example 6 C] | – | very significant lowering of blood pressure | only very weakly | stimulates | binds strongly
(cyclo 31-34)[Ac-Pro^4, D-Phe^12, Nle^21,38, CML^27, Glu^31, D-His^32, Lys^34]-r/hCRF(4-41) [Example 5 F] | – | very significant lowering of blood pressure | only very weakly | stimulates | binds strongly
